Laboratory results as given in PubChem BioAssay (NCI).
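Here, GI50 denotes the concentration required for 50% inhibition of growth. TGI marks complete inhibition of growth.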

What was measured:
Test in all cases: DTP human tumour cell line panel, 384-well format
CCRF-CEM leukemia = tested on: CCRF-CEM leukemia
UACC-62 melanoma = tested on: UACC-62 melanoma
NCI-H23 lung = tested on: NCI-H23 lung
SN12C renal = tested on: SN12C renal
SK-MEL-5 melanoma = tested on: SK-MEL-5 melanoma
OVCAR-4 ovarian = tested on: OVCAR-4 ovarian
SF-268 CNS = tested on: SF-268 CNS
PC-3 prostate = tested on: PC-3 prostate
OVCAR-8 ovarian = tested on: OVCAR-8 ovarian
IGROV1 ovarian = tested on: IGROV1 ovarian
OVCAR-3 ovarian = tested on: OVCAR-3 ovarian
EKVX NSCLC = tested on: EKVX NSCLC
SK-OV-3 ovarian = tested on: SK-OV-3 ovarian
NCI-H226 lung = tested on: NCI-H226 lung
SF-295 CNS = tested on: SF-295 CNS
HT29 colon = tested on: HT29 colon
MOLT-4 leukemia = tested on: MOLT-4 leukemia
HOP-62 NSCLC = tested on: HOP-62 NSCLC
786-0 renal = tested on: 786-0 renal
CAKI-1 renal = tested on: CAKI-1 renal
HL-60(TB) leukemia = tested on: HL-60(TB) leukemia
BT-549 breast = tested on: BT-549 breast
NCI/ADR-RES ovarian = tested on: NCI/ADR-RES ovarian
SF-539 CNS = tested on: SF-539 CNS
MALME-3M melanoma = tested on: MALME-3M melanoma
MDA-MB-231 breast = tested on: MDA-MB-231 breast
RXF 393 renal = tested on: RXF 393 renal
COLO 205 colon = tested on: COLO 205 colon
SK-MEL-28 melanoma = tested on: SK-MEL-28 melanoma
KM12 colon = tested on: KM12 colon
MDA-MB-468 breast = tested on: MDA-MB-468 breast
MCF7 breast = tested on: MCF7 breast
A549 NSCLC = tested on: A549 NSCLC
SR leukemia = tested on: SR leukemia
OVCAR-5 ovarian = tested on: OVCAR-5 ovarian
HCT-15 colon = tested on: HCT-15 colon
NCI-H322M lung = tested on: NCI-H322M lung
U251 glioblastoma = tested on: U251 glioblastoma
SNB-19 CNS = tested on: SNB-19 CNS
ACHN renal = tested on: ACHN renal
TK-10 renal = tested on: TK-10 renal
HCC-2998 colon = tested on: HCC-2998 colon
RPMI-8226 leukemia = tested on: RPMI-8226 leukemia
SW-620 colon = tested on: SW-620 colon
K-562 leukemia = tested on: K-562 leukemia
MDA-MB-435 melanoma = tested on: MDA-MB-435 melanoma
UACC-257 melanoma = tested on: UACC-257 melanoma
NCI-H522 lung = tested on: NCI-H522 lung
UO-31 renal = tested on: UO-31 renal
SNB-75 CNS = tested on: SNB-75 CNS
NCI-H460 NSCLC = tested on: NCI-H460 NSCLC
DU-145 prostate = tested on: DU-145 prostate
T-47D breast = tested on: T-47D breast
HOP-92 NSCLC = tested on: HOP-92 NSCLC
HCT-116 colon = tested on: HCT-116 colon
A498 renal = tested on: A498 renal

`O=C(Cc1cccc(OC(F)(F)F)c1)Nc1ccc(CCCCc2nnc(NC(=O)Cc3ccccn3)s2)nn1` was tested, and the GI50 (CCRF-CEM leukemia) was 0.375 µM, the TGI (CCRF-CEM leukemia) was > 100 µM and the GI50 (UACC-62 melanoma) was 4.76 µM. For the same molecule, the TGI (UACC-62 melanoma) was > 33.5 µM, the GI50 (NCI-H23 lung) was 4.78 µM and the TGI (NCI-H23 lung) was 39.6 µM. It also gave a GI50 (SN12C renal) of 0.0217 µM, a GI50 (SK-MEL-5 melanoma) of 0.891 µM and a TGI (SK-MEL-5 melanoma) of 17.2 µM. For the same molecule, the GI50 (OVCAR-4 ovarian) was 9.65 µM, the TGI (OVCAR-4 ovarian) was > 31.1 µM and the GI50 (SF-268 CNS) was 0.201 µM. The TGI (SF-268 CNS) was 1.98 µM, the GI50 (PC-3 prostate) was > 100 µM and the TGI (PC-3 prostate) was > 100 µM. For the same molecule, the GI50 (OVCAR-8 ovarian) was 1.22 µM, the TGI (OVCAR-8 ovarian) was 17.3 µM and the GI50 (IGROV1 ovarian) was > 31.6 µM. For the same molecule, the TGI (IGROV1 ovarian) was > 31.6 µM, the GI50 (OVCAR-3 ovarian) was > 21.4 µM and the TGI (OVCAR-3 ovarian) was > 100 µM. The GI50 (EKVX NSCLC) was 2.74 µM, the TGI (EKVX NSCLC) was > 100 µM and the GI50 (SK-OV-3 ovarian) was 0.0809 µM. The TGI (SK-OV-3 ovarian) was 25.2 µM, the GI50 (NCI-H226 lung) was 0.282 µM and the TGI (NCI-H226 lung) was 0.983 µM. The GI50 (SF-295 CNS) was 5.17 µM, the TGI (SF-295 CNS) was > 23.1 µM and the GI50 (HT29 colon) was > 100 µM. For the same molecule, the TGI (HT29 colon) was > 100 µM, the GI50 (MOLT-4 leukemia) was 2.04 µM and the TGI (MOLT-4 leukemia) was > 100 µM. For the same molecule, the GI50 (HOP-62 NSCLC) was 0.0537 µM, the TGI (HOP-62 NSCLC) was 0.335 µM and the GI50 ([…]-0 renal) was 0.0294 µM. It also gave a TGI (786-0 renal) of 0.248 µM, a GI50 (CAKI-1 renal) of 0.193 µM and a TGI (CAKI-1 renal) of 18 µM. For the same molecule, the GI50 (HL-60(TB) leukemia) was 0.687 µM, the TGI (HL-60(TB) leukemia) was > 100 µM and the GI50 (BT-549 breast) was 2.26 µM. The TGI (BT-549 breast) was 11.2 µM, the GI50 (NCI/ADR-RES ovarian) was > 100 µM and the TGI (NCI/ADR-RES ovarian) was > 100 µM. It also gave a GI50 (SF-539 CNS) of 0.224 µM, a TGI (SF-539 CNS) of 14.4 µM and a GI50 (MALME-3M melanoma) of 23.1 µM. The TGI (MALME-3M melanoma) was > 56.7 µM, the GI50 (MDA-MB-231 breast) was 0.0339 µM and the TGI (MDA-MB-231 breast) was 18.8 µM. The GI50 (RXF 393 renal) was 0.0372 µM, the TGI (RXF 393 renal) was 0.141 µM and the GI50 (COLO 205 colon) was 36.2 µM. The TGI (COLO 205 colon) was > 100 µM, the GI50 (SK-MEL-28 melanoma) was 30.8 µM and the TGI (SK-MEL-28 melanoma) was > 87.1 µM. The GI50 (KM12 colon) was 0.068 µM, the TGI (KM12 colon) was > 100 µM and the GI50 (MDA-MB-468 breast) was 8.47 µM. The TGI (MDA-MB-468 breast) was 93.3 µM, the GI50 (MCF7 breast) was 6.1 µM and the TGI (MCF7 breast) was > 100 µM. For the same molecule, the GI50 (A549 NSCLC) was 0.0172 µM, the TGI (A549 NSCLC) was 0.061 µM and the GI50 (SR leukemia) was 0.439 µM. The TGI (SR leukemia) was 18.7 µM, the GI50 (OVCAR-5 ovarian) was 0.362 µM and the TGI (OVCAR-5 ovarian) was > 100 µM. The GI50 (HCT-15 colon) was > 72.6 µM, the TGI (HCT-15 colon) was > 100 µM and the GI50 (NCI-H322M lung) was 0.0199 µM. It also gave a TGI (NCI-H322M lung) of 0.0551 µM, a GI50 (U251 glioblastoma) of 0.0338 µM and a TGI (U251 glioblastoma) of 11.8 µM. For the same molecule, the GI50 (SNB-19 CNS) was 39.4 µM, the TGI (SNB-19 CNS) was 97.2 µM and the GI50 (ACHN renal) was 2.52 µM. For the same molecule, the TGI (ACHN renal) was > 71 µM, the GI50 (TK-10 renal) was 0.637 µM and the TGI (TK-10 renal) was 18.3 µM. The TGI (HCC-2998 colon) was > 100 µM, the GI50 (RPMI-8226 leukemia) was 0.0377 µM and the TGI (RPMI-8226 leukemia) was 0.175 µM. The GI50 (SW-620 colon) was > 100 µM, the TGI (SW-620 colon) was > 100 µM and the GI50 (K-562 leukemia) was 8.95 µM. The TGI (K-562 leukemia) was > 100 µM, the GI50 (MDA-MB-435 melanoma) was > 100 µM and the TGI (MDA-MB-435 melanoma) was > 100 µM. For the same molecule, the GI50 (UACC-257 melanoma) was 14.4 µM, the TGI (UACC-257 melanoma) was 48 µM and the GI50 (NCI-H522 lung) was 0.075 µM. For the same molecule, the TGI (NCI-H522 lung) was 4.05 µM, the GI50 (UO-31 renal) was 5.66 µM and the GI50 (SNB-75 CNS) was 18.5 µM. It also gave a TGI (SNB-75 CNS) of 55.9 µM, a GI50 (NCI-H460 NSCLC) of 0.165 µM and a TGI (NCI-H460 NSCLC) of 19.2 µM. The GI50 (DU-145 prostate) was 31.4 µM, the TGI (DU-145 prostate) was > 100 µM and the GI50 (T-47D breast) was 1.87 µM. The TGI (T-47D breast) was 9.66 µM, the GI50 (HOP-92 NSCLC) was 6.95 µM and the TGI (HOP-92 NSCLC) was 32.4 µM. The GI50 (HCT-116 colon) was 0.162 µM, the TGI (HCT-116 colon) was > 33.4 µM and the GI50 (A498 renal) was 0.0303 µM. For the same molecule, the TGI (A498 renal) was 0.16 µM.
